The target in test [1] is b-Raf(V600E) (Homo sapiens (Human), UniProt P15056, V600E). Conditions: read-out: b-Raf IC-50; Table 2; Alpha Screen phospho-MEK, reaction 3 hours.
Description: In Vitro Raf Activity Determination
Full length MEK1 with an inactivating K97R ATP binding site mutation is utilized as a RAF substrate.
Assay buffer: 50 mM Tris, pH 7.5, 15 mM MgCl2, 0.01% Bovine Serum Albumin (BSA), 1 mM dithiothreitol (DTT) Stop buffer: 60 mM ethylenediaminetetraacetic acid (EDTA), 0.01% Tween® 20
biotinylated Mek, kinase dead
(§1) biotinylated Mek, Kinase dead approximately 10 nM
(§2) Pre-incubation time with compounds 60 minutes at room temperature
Reaction time 1 or 3 hours at room temperature
The plate was incubated for 60 minutes at room temperature.
(§3) The additions were carried out under dark conditions to protect the detection beads from light. A lid was placed on top of the plate and incubated for 1 hour at room temperature, then the luminescence was read on a PerkinElmer Envision instrument.
The target of test [2] is C-Raf FL (full-length C-Raf protein) (Homo sapiens (Human), UniProt P04049, Y340E/Y341E). The test is classed as biochemical. To be noted: Table 2, Alpha Screen phospho-MEK, reaction 1 hour, read-out: c-Raf FL IC-50.
Excerpt: Sf9 cells co-expressing both proteins were lysed and subjected to immobilized nickel chromatography and eluted with Imidazole. A second column (StrepII binding column) was used and eluted with desthiobiotin. Protein Tags were removed using Prescission enzyme and the protein was further purified using a flowthrough step to remove tags.
C-Raf FL refers to the full-length C-Raf protein.
Full length MEK1 with an inactivating K97R ATP binding site mutation is utilized as a RAF substrate. The MEK1 cDNA was subcloned with an N-terminal (his)6 tag into a vector for E. Coli expression. The MEK1 substrate was purified from E. Coli lysate by nickel affinity chromatography followed by anion exchange. The final MEK1 preparation was biotinylated (Pierce EZ-Link Sulfo-NHS-LC-Biotin) and concentrated.
Assay buffer: 50 mM Tris, pH 7.5, 15 mM MgCl2, 0.01% Bovine Serum Albumin (BSA), 1 mM dithiothreitol (DTT)
Stop buffer: 60 mM ethylenediaminetetraacetic acid (EDTA), 0.01% Tween® 20
as §1, §2
Reaction time 1 or 3 hours at room temperature […]
as §3

Chain of b-Raf(V600E) (P15056 whole entry V600E): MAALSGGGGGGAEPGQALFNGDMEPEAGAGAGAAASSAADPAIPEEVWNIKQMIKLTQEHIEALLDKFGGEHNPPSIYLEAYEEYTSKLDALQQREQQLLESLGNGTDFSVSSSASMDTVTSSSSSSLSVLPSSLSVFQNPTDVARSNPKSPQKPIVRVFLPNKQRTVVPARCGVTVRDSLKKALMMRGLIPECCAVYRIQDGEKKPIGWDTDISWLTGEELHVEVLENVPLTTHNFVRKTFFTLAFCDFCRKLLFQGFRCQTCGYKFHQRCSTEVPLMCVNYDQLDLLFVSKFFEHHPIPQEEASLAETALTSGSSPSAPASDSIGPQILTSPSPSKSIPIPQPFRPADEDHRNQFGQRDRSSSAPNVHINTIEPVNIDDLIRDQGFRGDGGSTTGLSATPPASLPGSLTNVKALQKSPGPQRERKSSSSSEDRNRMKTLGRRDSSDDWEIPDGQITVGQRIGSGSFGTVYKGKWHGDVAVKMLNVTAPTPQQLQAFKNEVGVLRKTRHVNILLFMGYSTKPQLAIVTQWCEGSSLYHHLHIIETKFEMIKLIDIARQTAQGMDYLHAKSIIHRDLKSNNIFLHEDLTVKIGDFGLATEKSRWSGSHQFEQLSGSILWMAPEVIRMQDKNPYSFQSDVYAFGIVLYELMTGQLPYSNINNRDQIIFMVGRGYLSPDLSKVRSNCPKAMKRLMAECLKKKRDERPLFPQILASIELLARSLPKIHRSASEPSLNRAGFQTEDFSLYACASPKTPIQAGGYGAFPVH

As for `Cc1ncc(NC(=O)c2cccc(C(F)(F)F)c2)cc1-c1cc(N2CCOCC2)nc(NC[C@@H](C)O)n1` [Example 743, (R)—N-(5-(2-((2-hydroxypropyl)amino)-6-morpholinopyrimidin-4-yl)-6-methylpyridin-3-yl)-3-(trifluoromethyl) benzamide], in test [1], the IC50 is 3.7 nM.
For “N-(4-methyl-3-(5-morpholino-6-((tetrahydro-2H-pyran-4-yl)oxy)pyridazin-3-yl) phenyl)-6-(trifluoromethyl) pyridazine-4-carboxamide [Example 577]”, the IC50 in test [1] turned out to be 0.6 nM.
On to “N-(4-methyl-3-(7-morpholino-2-oxo-2,3-dihydrobenzo[d]oxazol-5-yl) phenyl)-3-(trifluoromethyl) benzamide [Example 827]”, for which, in test [2], the IC50 turned out to be 0.2 nM.
